From ChEMBL document CHEMBL1131545, “A practical synthesis of 3-substituted delta 3,5(6)-steroids as new potential 5 alpha-reductase inhibitor” (Bioorg Med Chem Lett, 1998)

Columns and labels:
[1] = biological target: T1, Steroid 5-alpha-reductase (Rattus norvegicus, UniProt P24008+P31214); experiment: Ability to inhibit Steroid 5-alpha-reductase in rat using Isotope method [3H]T to [3H]-DHT]
T1 sequence (P24008 whole entry): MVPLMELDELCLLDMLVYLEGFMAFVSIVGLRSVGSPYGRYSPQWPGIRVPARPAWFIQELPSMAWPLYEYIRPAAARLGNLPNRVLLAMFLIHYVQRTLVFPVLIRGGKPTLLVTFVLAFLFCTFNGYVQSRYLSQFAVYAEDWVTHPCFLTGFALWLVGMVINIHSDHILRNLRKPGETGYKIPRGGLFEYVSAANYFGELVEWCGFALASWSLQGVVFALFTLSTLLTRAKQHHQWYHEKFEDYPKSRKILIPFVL
T1 sequence (P31214 whole entry): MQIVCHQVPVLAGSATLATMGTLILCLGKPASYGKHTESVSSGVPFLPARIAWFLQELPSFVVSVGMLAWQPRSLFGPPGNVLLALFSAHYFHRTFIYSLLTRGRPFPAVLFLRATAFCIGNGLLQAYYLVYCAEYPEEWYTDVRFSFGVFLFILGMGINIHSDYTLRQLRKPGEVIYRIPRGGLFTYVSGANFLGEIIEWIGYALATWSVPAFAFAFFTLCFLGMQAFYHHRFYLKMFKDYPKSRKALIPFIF

[2] = biological target: T1, Steroid 5-alpha-reductase; experiment: Ability to inhibit Steroid 5-alpha-reductase in rat using Enzyme kinetics method.

Ki [1]	Ki [2]	SMILES
>> 1000 nM	>> 1000 nM	CC(=O)C1=CC2=CCC3C(CC[C@@]4(C)C3CC[C@@H]4C(=O)NC(C)(C)C)[C@@]2(C)CC1 (some centres not stated)
68.5 nM	18.1 nM	CCOP(=O)(OCC)C1=CC2=CCC3C(CC[C@@]4(C)C3CC[C@@H]4C(=O)NC(C)(C)C)[C@@]2(C)CC1 (some centres not stated)
>> 1000 nM	>> 1000 nM	CC(C)(C)NC(=O)[C@H]1CCC2C3CC=C4C=CCC[C@]4(C)C3CC[C@@]21C (some centres not stated)
>> 1000 nM	>> 1000 nM	CCN(CC)C(=O)C1=CC2=CCC3C(CC[C@@]4(C)C3CC[C@@H]4C(=O)NC(C)(C)C)[C@@]2(C)CC1 (some centres not stated)
100.2 nM	45.8 nM	CC(C)(C)NC(=O)[C@H]1CCC2C3CC=C4C=C(C#Cc5ccccc5)CC[C@]4(C)C3CC[C@@]21C (some centres not stated)
88.2 nM	54.7 nM	CC(C)(C)NC(=O)[C@H]1CC[C@H]2[C@@H]3CC[C@H]4NC(=O)C=C[C@]4(C)[C@H]3CC[C@]12C [FINASTERIDE]
